Measurements: ChEMBL document CHEMBL1201862, “PubChem BioAssay data set” (2004)
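These data come from cells grown in 96-well plates and exposed to compound for 48 hours at five concentrations. At the GI50, growth is halved.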 Active and inactive are the calls of the source. No stated cut-off is given here; in the data, active = GI50 up to about 1.1 µM and inactive = higher.

Assays:
Test in all cases: NCI anticancer screen, dose series, 48 h
ACHN = tested on: ACHN
EKVX = tested on: EKVX
HCT-15 = tested on: HCT-15
HOP-62 = tested on: HOP-62
IGROV-1 = tested on: IGROV-1
LXFL 529 = tested on: LXFL 529
M19-MEL = tested on: M19-MEL
NCI-H226 = tested on: NCI-H226
RPMI-8226 = tested on: RPMI-8226
RXF 393 = tested on: RXF 393
SF-295 = tested on: SF-295
SF-539 = tested on: SF-539
SK-MEL-5 = tested on: SK-MEL-5
SNB-19 = tested on: SNB-19
SNB-75 = tested on: SNB-75
UACC-62 = tested on: UACC-62

O=C(Cn1ccnc1[N+](=O)[O-])NCc1ccc(F)cc1
GI50 (ACHN): > 100 µM (inactive) | GI50 (EKVX): > 100 µM (inactive) | GI50 (HCT-15): > 100 µM | GI50 (HOP-62): > 100 µM (inactive) | GI50 (IGROV-1): > 100 µM (inactive) | GI50 (LXFL 529): > 100 µM (inactive) | GI50 (M19-MEL): > 100 µM (inactive) | GI50 (NCI-H226): 40.2 µM (inactive) | GI50 (RPMI-8226): > 100 µM (inactive) | GI50 (RXF 393): > 100 µM (inactive) | GI50 (SF-295): > 100 µM (inactive) | GI50 (SF-539): > 100 µM (inactive) | GI50 (SK-MEL-5): > 100 µM (inactive) | GI50 (SNB-19): > 100 µM (inactive) | GI50 (SNB-75): 68.9 µM (inactive) | GI50 (UACC-62): > 100 µM (inactive)

Cc1ccc(NC(=O)CC/C(CC(=O)C(C)(C)C)=N/NC(=O)C[N+](C)(C)C)cc1C
GI50 (ACHN): > 100 µM (inactive) | GI50 (EKVX): > 100 µM (inactive) | GI50 (HCT-15): > 100 µM | GI50 (HOP-62): > 100 µM (inactive) | GI50 (IGROV-1): > 100 µM (inactive) | GI50 (LXFL 529): > 100 µM (inactive) | GI50 (M19-MEL): > 100 µM (inactive) | GI50 (NCI-H226): > 100 µM (inactive) | GI50 (RXF 393): > 100 µM (inactive) | GI50 (SF-295): > 100 µM (inactive) | GI50 (SF-539): 18.6 µM (inactive) | GI50 (SK-MEL-5): > 100 µM (inactive) | GI50 (SNB-19): > 100 µM (inactive) | GI50 (UACC-62): > 100 µM (inactive)

OCC(O)C(O)C(O)c1nn(-c2ccccc2)c2nc3cc(Cl)c(Cl)cc3nc12 (stereo not drawn)
GI50 (ACHN): 25.1 µM (inactive) | GI50 (EKVX): 51.6 µM (inactive) | GI50 (HOP-62): 42.1 µM (inactive) | GI50 (IGROV-1): 39.4 µM (inactive) | GI50 (LXFL 529): 57.5 µM (inactive) | GI50 (M19-MEL): 49.1 µM (inactive) | GI50 (NCI-H226): 36.5 µM (inactive) | GI50 (RPMI-8226): 25.4 µM (inactive) | GI50 (RXF 393): 19.9 µM (inactive) | GI50 (SF-295): 56.5 µM (inactive) | GI50 (SF-539): 18.6 µM (inactive) | GI50 (SNB-19): 74.6 µM (inactive) | GI50 (SNB-75): 20.3 µM (inactive) | GI50 (UACC-62): 28.8 µM (inactive)

CC(=O)OC1C2CCC1C1C2C2(Cl)C(Cl)=C(Cl)C1(Cl)C2(Cl)Cl (stereo not drawn)
GI50 (ACHN): 12.2 µM (inactive) | GI50 (EKVX): 11.3 µM (inactive) | GI50 (HOP-62): 15.5 µM (inactive) | GI50 (IGROV-1): 16.4 µM (inactive) | GI50 (LXFL 529): 12.5 µM (inactive) | GI50 (M19-MEL): 13.3 µM (inactive) | GI50 (NCI-H226): 13 µM (inactive) | GI50 (RPMI-8226): 6.05 µM (inactive) | GI50 (RXF 393): 15.1 µM (inactive) | GI50 (SF-295): 11.3 µM (inactive) | GI50 (SF-539): 16.6 µM (inactive) | GI50 (SK-MEL-5): 13 µM (inactive) | GI50 (SNB-19): 15.1 µM (inactive) | GI50 (SNB-75): 14.7 µM (inactive) | GI50 (UACC-62): 12.4 µM (inactive)

COCOCCC#CCO
GI50 (ACHN): > 100 µM (inactive) | GI50 (EKVX): > 100 µM (inactive) | GI50 (HCT-15): > 100 µM | GI50 (IGROV-1): > 100 µM (inactive) | GI50 (LXFL 529): 83.6 µM (inactive) | GI50 (RPMI-8226): > 100 µM (inactive) | GI50 (RXF 393): > 100 µM (inactive) | GI50 (SF-295): > 100 µM (inactive) | GI50 (SF-539): > 100 µM (inactive) | GI50 (SK-MEL-5): 72.8 µM (inactive) | GI50 (SNB-19): > 100 µM (inactive) | GI50 (SNB-75): > 100 µM (inactive) | GI50 (UACC-62): > 100 µM (inactive)

Cc1cc2c(cc1C)[n+]([O-])c(C(=O)CC(=O)C(=O)Nc1c(C(C)C)cccc1C(C)C)c(C)[n+]2[O-]
GI50 (ACHN): > 100 µM (inactive) | GI50 (EKVX): > 100 µM (inactive) | GI50 (HCT-15): > 100 µM | GI50 (HOP-62): > 100 µM (inactive) | GI50 (IGROV-1): > 100 µM (inactive) | GI50 (LXFL 529): > 100 µM (inactive) | GI50 (M19-MEL): > 100 µM (inactive) | GI50 (NCI-H226): > 100 µM (inactive) | GI50 (RPMI-8226): > 100 µM (inactive) | GI50 (RXF 393): > 100 µM (inactive) | GI50 (SF-295): > 100 µM (inactive) | GI50 (SF-539): > 100 µM (inactive) | GI50 (SK-MEL-5): > 100 µM (inactive) | GI50 (SNB-19): > 100 µM (inactive) | GI50 (SNB-75): > 100 µM (inactive) | GI50 (UACC-62): > 100 µM (inactive)

CCOP(=O)(OCC)C1CCCCOC1=O (stereo not drawn)
GI50 (ACHN): > 100 µM (inactive) | GI50 (EKVX): > 100 µM (inactive) | GI50 (HCT-15): > 100 µM | GI50 (HOP-62): > 100 µM (inactive) | GI50 (IGROV-1): > 100 µM (inactive) | GI50 (LXFL 529): > 100 µM (inactive) | GI50 (M19-MEL): > 100 µM (inactive) | GI50 (RPMI-8226): > 100 µM (inactive) | GI50 (RXF 393): > 100 µM (inactive) | GI50 (SF-295): > 100 µM (inactive) | GI50 (SF-539): > 100 µM (inactive) | GI50 (SK-MEL-5): > 100 µM (inactive) | GI50 (SNB-19): > 100 µM (inactive) | GI50 (SNB-75): > 100 µM (inactive) | GI50 (UACC-62): > 100 µM (inactive)

C=CC(=O)Nc1ccccc1CC(c1c[nH]c2ccccc12)c1c[nH]c2ccccc12
GI50 (EKVX): 17.5 µM (inactive) | GI50 (HCT-15): 18.7 µM | GI50 (HOP-62): 19.6 µM (inactive) | GI50 (IGROV-1): 18.2 µM (inactive) | GI50 (LXFL 529): 16.1 µM (inactive) | GI50 (M19-MEL): 15.6 µM (inactive) | GI50 (NCI-H226): 21.3 µM (inactive) | GI50 (RPMI-8226): 17.5 µM (inactive) | GI50 (RXF 393): > 10 µM (inactive) | GI50 (SF-295): 22.1 µM (inactive) | GI50 (SF-539): 21.3 µM (inactive) | GI50 (SK-MEL-5): 17.6 µM (inactive) | GI50 (SNB-19): 17.9 µM (inactive) | GI50 (SNB-75): 14.1 µM (inactive) | GI50 (UACC-62): 16.6 µM (inactive)

CC1=NN(C(=O)Nc2ccc(Cl)cc2)C(=O)C2CCC(=O)N12 (stereo not drawn)
GI50 (ACHN): 5.73 µM (inactive) | GI50 (EKVX): > 100 µM (inactive) | GI50 (HCT-15): 1.76 µM | GI50 (HOP-62): > 100 µM (inactive) | GI50 (IGROV-1): > 100 µM (inactive) | GI50 (LXFL 529): 2.65 µM (inactive) | GI50 (M19-MEL): > 100 µM (inactive) | GI50 (RPMI-8226): 93.3 µM (inactive) | GI50 (RXF 393): > 100 µM (inactive) | GI50 (SF-295): 48.3 µM (inactive) | GI50 (SF-539): > 100 µM (inactive) | GI50 (SK-MEL-5): 87.3 µM (inactive) | GI50 (SNB-19): > 100 µM (inactive) | GI50 (SNB-75): > 100 µM (inactive) | GI50 (UACC-62): 2.2 µM (inactive)

C=CCCCCCCCCCP(=O)(c1ccccc1)c1ccc2c(c1)OCCOCCOCCOCCO2 (stereo not drawn)
GI50 (ACHN): 16.7 µM (inactive) | GI50 (EKVX): 19.6 µM (inactive) | GI50 (HCT-15): 13.8 µM | GI50 (HOP-62): 16.6 µM (inactive) | GI50 (IGROV-1): 16 µM (inactive) | GI50 (M19-MEL): 18.4 µM (inactive) | GI50 (NCI-H226): 13.7 µM (inactive) | GI50 (RPMI-8226): 11.7 µM (inactive) | GI50 (RXF 393): 14.2 µM (inactive) | GI50 (SF-295): 15.2 µM (inactive) | GI50 (SF-539): 17.3 µM (inactive) | GI50 (SK-MEL-5): 11.3 µM (inactive) | GI50 (SNB-19): 13.1 µM (inactive) | GI50 (SNB-75): 18.5 µM (inactive) | GI50 (UACC-62): 15.7 µM (inactive)
